What was measured:
human GSK3α = molecular target: T1, human GSK3α (Homo sapiens, UniProt P49840); assay: In vitro enzymatic activity assay, GSK3α; format: biochemical; conditions: 1.0 mM ATP, 1.0 μM peptide substrate, 120 min, 25° C, read-out: Enzyme GSK3α (IC50)
T1 construct: Full length human GSK3α or GSK3B expressed as N-terminal GST fusion proteins; GST (N); purchased Carna Biosciences (Japan); host or cells: baculovirus host

GSK3A = molecular target: T2, GSK3A (Homo sapiens, UniProt P49840); assay: NanoBRET cellular target engagement assay, Nanoluc-GSK3A in HEK293 cells; format: cell-based; conditions: NanoBRET GSK3α IC50, HEK293 cells, tracer K-8, 2 hours, 37° C
T2 construct: expressed in transfected cells
T2 sequence (P49840 whole entry): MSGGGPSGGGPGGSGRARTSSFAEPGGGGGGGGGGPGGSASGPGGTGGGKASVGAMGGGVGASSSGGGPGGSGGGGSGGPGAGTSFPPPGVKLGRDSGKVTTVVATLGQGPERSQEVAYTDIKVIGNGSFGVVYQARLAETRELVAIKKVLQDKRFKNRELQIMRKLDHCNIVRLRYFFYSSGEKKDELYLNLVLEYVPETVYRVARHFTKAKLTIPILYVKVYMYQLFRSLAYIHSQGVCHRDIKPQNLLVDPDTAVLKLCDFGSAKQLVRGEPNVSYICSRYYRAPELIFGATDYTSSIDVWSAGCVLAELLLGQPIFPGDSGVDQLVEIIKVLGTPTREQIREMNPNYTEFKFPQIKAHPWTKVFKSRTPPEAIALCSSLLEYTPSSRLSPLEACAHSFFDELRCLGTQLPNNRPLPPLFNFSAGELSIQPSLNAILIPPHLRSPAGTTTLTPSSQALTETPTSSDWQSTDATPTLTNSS

GSK3B [1] = molecular target: T3, GSK3B (Homo sapiens, UniProt P49841); assay: NanoBRET cellular target engagement assay, Nanoluc-GSK3B in HEK293 cells; format: cell-based; design: expressed in transfected cells; conditions: NanoBRET GSK3β IC50, HEK293 cells, tracer K-8, 2 hours, 37° C
T3 sequence (P49841 whole entry, the tested form may be a part): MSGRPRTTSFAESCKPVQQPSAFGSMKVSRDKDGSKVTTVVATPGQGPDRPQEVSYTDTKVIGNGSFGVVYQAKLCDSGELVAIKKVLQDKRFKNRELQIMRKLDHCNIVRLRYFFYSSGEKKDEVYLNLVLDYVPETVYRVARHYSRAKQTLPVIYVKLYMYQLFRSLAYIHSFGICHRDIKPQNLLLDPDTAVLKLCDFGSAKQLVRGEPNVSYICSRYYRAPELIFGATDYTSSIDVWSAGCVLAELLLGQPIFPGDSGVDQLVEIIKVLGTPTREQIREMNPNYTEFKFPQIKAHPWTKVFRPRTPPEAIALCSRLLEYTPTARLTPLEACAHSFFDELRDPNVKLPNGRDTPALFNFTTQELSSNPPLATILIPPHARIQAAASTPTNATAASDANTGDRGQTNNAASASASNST

GSK3B [2] = molecular target: T3, GSK3B; assay: In vitro enzymatic activity assay, GSK3β; format: biochemical; design: Full length human GSK3α or GSK3B expressed as N-terminal GST fusion proteins; GST (N); purchased Carna Biosciences (Japan); host or cells: baculovirus host; conditions: 1.0 mM ATP, 1.0 μM peptide substrate, 120 min, 25° C, read-out: Enzyme GSK3β (IC50)

T1 sequence (P49840 whole entry, the tested form may be a part): as the sequence (P49840 whole entry) above

| Structure (SMILES) | IC50 (human GSK3α) [µM] | IC50 (GSK3A) [µM] | IC50 (GSK3B [1]) [µM] | IC50 (GSK3B [2]) [µM] |
| --- | --- | --- | --- | --- |
| COc1cc(Cl)c(-n2cnc(N)c(C(=O)Nc3cnc(F)c([C@@H]4CCCCN4)c3)c2=O)c(Cl)c1 (single isomer, unassigned) [Example 76, (S)-4-amino-1-(2,6-dichloro-4-methoxyphenyl)-N-(6-fluoro-5-(piperidin-2-yl)pyridin-3-yl)-6-oxo-1,6-dihydropyrimidine-5-carboxamide or (R)-4-amino-1-(2,6-dichloro-4-methoxyphenyl)-N-(6-fluoro-5-(piperidin-2-yl)pyridin-3-yl)-6-oxo-1,6-dihydropyrimidine-5-carboxamide] | 0.016 | 0.0094 | 0.591 | 0.854 |
| Cc1cc(C(F)(F)F)cc(C)c1-n1cnc(N)c(C(=O)Nc2cncc(C3CCC(C)N3)c2)c1=O (single isomer, unassigned) [Example 87] | 0.0179 | 0.0076 | 0.543 | 1.13 |
| CCC(N)c1cncc(NC(=O)c2c(N)ncn(-c3c(C)cc(C(F)(F)F)cc3C)c2=O)c1 (single isomer, unassigned) [Example 88, (R)-4-amino-N-(5-(1-aminopropyl)pyridin-3-yl)-1-(2,6-dimethyl-4-(trifluoromethyl)phenyl)-6-oxo-1,6-dihydropyrimidine-5-carboxamide or (S)-4-amino-N-(5-(1-aminopropyl)pyridin-3-yl)-1-(2,6-dimethyl-4-(trifluoromethyl)phenyl)-6-oxo-1,6-dihydropyrimidine-5-carboxamide] | 0.0154 | 0.0081 | 0.454 | 1.02 |
| Cc1cc(C(F)(F)F)cc(C)c1-n1cnc(N)c(C(=O)Nc2cncc(C3CCCC(C)N3)c2)c1=O (single isomer, unassigned) [Example 90] | 0.0156 | 0.0065 | 0.7 | 1.07 |
| CCOc1cc(C)c(-n2cnc(N)c(C(=O)Nc3cncc(C4CCC(C)N4)c3)c2=O)c(C)c1 (single isomer, unassigned) [Example 92] | 0.0164 | 0.0068 | 0.584 | 1.03 |
| CCOc1cc(C)c(-n2cnc(N)c(C(=O)Nc3cncc(C4CCC(C)N4)c3)c2=O)c(C)c1 (single isomer, unassigned) [Example 93] | 0.0317 | 0.0093 | 0.914 | 1.95 |
| CCOc1cc(C)c(-n2cnc(N)c(C(=O)Nc3cncc(C4CCCC(C)N4)c3)c2=O)c(C)c1 (single isomer, unassigned) [Example 96] | 0.0164 | 0.0067 | 0.64 | 0.706 |

Compounds with a lower IC50 (human GSK3α), results first:

| IC50 (human GSK3α) [µM] | IC50 (GSK3A) [µM] | IC50 (GSK3B [1]) [µM] | IC50 (GSK3B [2]) [µM] | Structure (SMILES) |
| --- | --- | --- | --- | --- |
| 0.0114 | 0.0077 | 0.703 | 0.958 | COc1cc(Cl)c(-n2cnc(N)c(C(=O)Nc3cncc(C4CCC(C)N4)c3)c2=O)c(Cl)c1 (single isomer, unassigned) [Example 78] |
| 0.0102 | 0.0064 | 0.485 | 0.669 | Cc1cc(C(F)(F)F)cc(C)c1-n1cnc(N)c(C(=O)Nc2cncc(C3CCCCCN3)c2)c1=O (single isomer, unassigned) [Example 89, (R)-4-amino-N-(5-(azepan-2-yl)pyridin-3-yl)-1-(2,6-dimethyl-4-(trifluoromethyl)phenyl)-6-oxo-1,6-dihydropyrimidine-5-carboxamide or (S)-4-amino-N-(5-(azepan-2-yl)pyridin-3-yl)-1-(2,6-dimethyl-4-(trifluoromethyl)phenyl)-6-oxo-1,6-dihydropyrimidine-5-carboxamide] |
| 0.0098 | 0.0043 | 0.29 | 0.465 | CCOc1cc(C)c(-n2cnc(N)c(C(=O)Nc3cncc(C4CCCCCN4)c3)c2=O)c(C)c1 (single isomer, unassigned) [Example 95, (R)-4-amino-N-(5-(azepan-2-yl)pyridin-3-yl)-1-(4-ethoxy-2,6-dimethylphenyl)-6-oxo-1,6-dihydropyrimidine-5-carboxamide or (S)-4-amino-N-(5-(azepan-2-yl)pyridin-3-yl)-1-(4-ethoxy-2,6-dimethylphenyl)-6-oxo-1,6-dihydropyrimidine-5-carboxamide] |
| 0.0094 | 0.0042 | 0.374 | 0.551 | COc1cc(Cl)c(-n2cnc(N)c(C(=O)Nc3cncc(C(N)CC(F)F)c3)c2=O)c(Cl)c1 (single isomer, unassigned) [Example 85, (R)-4-amino-N-(5-(1-amino-3,3-difluoropropyl)pyridin-3-yl)-1-(2,6-dichloro-4-methoxyphenyl)-6-oxo-1,6-dihydropyrimidine-5-carboxamide or (S)-4-amino-N-(5-(1-amino-3,3-difluoropropyl)pyridin-3-yl)-1-(2,6-dichloro-4-methoxyphenyl)-6-oxo-1,6-dihydropyrimidine-5-carboxamide] |
| 0.007 | 0.0041 | 0.336 | 0.49 | COc1cc(Cl)c(-n2cnc(N)c(C(=O)Nc3cncc(C4CCCC(C)N4)c3)c2=O)c(Cl)c1 (single isomer, unassigned) [Example 83] |
| 0.0059 | 0.0023 | 0.117 | 0.314 | COc1cc(Cl)c(-n2cnc(N)c(C(=O)Nc3cncc([C@H]4CCC[C@H](C)N4)c3)c2=O)c(Cl)c1 (single isomer, unassigned) [Example 81] |
| 0.0045 | 0.004 | 0.269 | 0.248 | COc1cc(Cl)c(-n2cnc(N)c(C(=O)Nc3cncc(C(N)CC(F)F)c3)c2=O)c(Cl)c1 (single isomer, unassigned) [Example 82, (R)-4-amino-N-(5-(1-amino-3,3-difluoropropyl)pyridin-3-yl)-1-(2,6-dichloro-4-methoxyphenyl)-6-oxo-1,6-dihydropyrimidine-5-carboxamide or (S)-4-amino-N-(5-(1-amino-3,3-difluoropropyl)pyridin-3-yl)-1-(2,6-dichloro-4-methoxyphenyl)-6-oxo-1,6-dihydropyrimidine-5-carboxamide] |
| 0.0043 | 0.0024 | 0.17 | 0.317 | COc1cc(Cl)c(-n2cnc(N)c(C(=O)Nc3cncc(C4CCC(C)N4)c3)c2=O)c(Cl)c1 (single isomer, unassigned) [Example 79] |
| 0.0038 | 0.0025 | 0.179 | 0.254 | COc1cc(Cl)c(-n2cnc(N)c(C(=O)Nc3cncc([C@H]4CCC[C@H](C)N4)c3)c2=O)c(Cl)c1 (single isomer, unassigned) [Example 84] |
| 0.0025 | 0.0029 | 0.271 | 0.27 | CN[C@@H](COC)c1cncc(NC(=O)c2c(N)ncn(-c3c(Cl)cc(OC)cc3Cl)c2=O)c1 (single isomer, unassigned) [Example 80, (R)-4-amino-1-(2,6-dichloro-4-methoxyphenyl)-N-(5-(2-methoxy-1-(methylamino)ethyl)pyridin-3-yl)-6-oxo-1,6-dihydropyrimidine-5-carboxamide or (S)-4-amino-1-(2,6-dichloro-4-methoxyphenyl)-N-(5-(2-methoxy-1-(methylamino)ethyl)pyridin-3-yl)-6-oxo-1,6-dihydropyrimidine-5-carboxamide] |

From patent US20260327191A1, “GSK3a INHIBITORS AND METHODS OF USE THEREOF” (Blueprint Medicines Corporation, priority 2023, published 2026)
